Source: US20110230433A1, “COMPOSITIONS AND METHODS FOR TREATMENT OF CANCER” (UNIVERSITY OF WASHINGTON, priority 2010, published 2011)

Key:
[1] = tested on: DNA; conditions: cited from earlier work
[2] = tested on: HCT116; assay: Viability after 48 hr culture with analog, crystal violet staining; type: cell-based, human; conditions: HCT116 (mismatch repair deficient)
Procedure: (§1) The concentration of each analog used in the serial transfer experiments can be 50% less than the highest dose at which there is no reduction in viability. Analogs that fail to be toxic can be used at 100 μM.
(§2) In Table 2, mismatch repair proficient and deficient cell lines were assayed for viability after growing for 48 hr with the indicated analogs in nM to mM concentrations.

[3] = tested on: SW480; assay: as above; type: cell-based, human; conditions: SW480 (mismatch repair proficient)
Procedure: as §1, §2

[4] = tested on: dG; conditions: cited from earlier work
[5] = tested on: human cells deficient in O^6-methyl transferase; conditions: compared to correct base-pairing with cytidine; cited from earlier work
[6] = tested on: E. coli; conditions: E. coli lacking repair of 8-OH-dG; cited from earlier work
[7] = tested on: DNA polymerases; conditions: copying past site specific residues by DNA polymerases in vitro; cited from earlier work
[8] = tested on: HIV; conditions: HIV in tissue culture; cited from earlier work

| Compound | Highest dose without decreased viability [2] | Highest dose without decreased viability [3] | further results |
| --- | --- | --- | --- |
| OC[C@H]1O[C@@H](n2cnc3c2ncn2ccnc32)C[C@@H]1O [Etheno-dA, 1,N6-etheno dA] | – | – | frequency of non-complementary base-pairs [1]: approximately 10% |
| NC1=NC(=O)N([C@H]2C[C@H](O)[C@@H](CO)O2)CN1 [KP-1212, reference compound] | 3.3 mM | 3.3 mM | – |
| OC[C@H]1O[C@@H](n2cnc3c(O)ncnc32)C[C@@H]1O [2′-deoxyinosine] | >3.3 mM | >3.3 mM | – |
| CCOc1nc(=O)n([C@H]2C[C@H](O)[C@@H](CO)O2)cc1C [O^4-ethyl-2′-deoxythymidine] | 0.33 mM | >3.3 mM | frequency of mispairing with dG [4]: approximately 25% |
| COc1nc(N)nc2c1ncn2[C@H]1C[C@H](O)[C@@H](CO)O1 [O^6-methyl dG] | – | – | frequency of base-pairing with thymidine [5]: 19% |
| Nc1ncc2ncn([C@H]3C[C@H](O)[C@@H](CO)O3)c2n1 [2′-deoxyaminopurine, 2-Amino-9-(β-D-2′-deoxyribfuranosyl)purine] | >3.3 mM | >3.3 mM | – |
| Nc1nc(=O)n([C@H]2C[C@H](O)[C@@H](CO)O2)cc1O [5-hydroxy-2′-deoxycytidine] | 0.03 mM | 0.3 mM | – |
| CCN(N=O)C(N)=O [ENU, ethylnitrosourea, reference compound] | 1.1 mg/mL | 0.6 mg/mL | – |
| Nc1nc2c(nc(O)n2[C@H]2C[C@H](O)[C@@H](CO)O2)c(=O)[nH]1 [8-OH-dG, 8-hydroxy deoxyguanosine] | – | – | increase in mutagenesis [6]: 1000 fold |
| COc1nc(=O)n([C@H]2C[C@H](O)[C@@H](CO)O2)cc1C [O^4-methyl-2′-deoxythymidine] | >3.3 mM | >3.3 mM | frequency of mispairing with dG [4]: approximately 25%; increase in mis-incorporation [7]: 20%; induction of lethal mutagenesis [8]: induce lethal mutagenesis of HIV |
| Nc1ncc2[nH]cnc2n1 [2′-aminopurine, 2-Aminopurine] | 0.00033 mM | 0.00033 mM | – |
| CCOc1nc(N)nc2c1ncn2[C@H]1C[C@H](O)[C@@H](CO)O1 [O^6-ethyl dG] | – | – | frequency of base-pairing with thymidine [5]: 11% |
| O=c1n([C@H]2C[C@H](O)[C@@H](CO)O2)ccc2nccn12 [Etheno-dC, N^3,4-etheno dC] | – | – | frequency of non-complementary base-pairs [1]: approximately 10% |
| O=c1[nH]c2nccn2c2c1ncn2C1C[C@H](O)[C@@H](CO)O1 (some centres unmarked) [Etheno-dG, N^2,3-etheno dG] | – | – | frequency of non-complementary base-pairs [1]: approximately 10% |
